Molecules are shown by their SMILES.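 Values below derive from 48-hour exposures of cells grown in 96-well plates, with endpoints linearly interpolated between the two concentrations bracketing the appropriate inhibition level. GI50 = concentration required for 50% inhibition of growth.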 Calls of active or inactive are those of the source. Rule as the data show it: active = GI50 up to about 1.1 µM and inactive = higher.

Results on 10 compounds are retold here after ChEMBL document CHEMBL1201862, “PubChem BioAssay data set” (2004).

What all share (assay): NCI tumour cell line growth inhibition, 48 h
Experiment [1] concerns UACC-62.
In experiment [2] the test system is Malme-3M.
Experiment [3] deals with SK-MEL-2.
Experiment [4] has as its system Hs-578T.
Experiment [5] has as its system NCI-H522.
Experiment [6] has as its system HOP-62.
Experiment [7] has as its system HCT-116.
Experiment [8] concerns T47D.
Experiment [9] relates to NCI-H226.
Experiment [10] relates to A498.
For experiment [11], the system named is OVCAR-3.
Experiment [12] deals with HOP-92.
The test system of experiment [13] is SK-MEL-5.
Experiment [14] concerns SN12C.
Experiment [15] deals with A549.
In experiment [16] the test system is HL-60.
Experiment [17] relates to RPMI-8226.
Experiment [18] has as its system OVCAR-5.
Experiment [19] has as its system COLO 205.

In the case of `COc1cc(/C=N/n2c(-c3ccccc3)nn(C(C)=O)c2=O)cc(OC)c1OC`, the GI50 is 1.92 µM (inactive) in [1]; 5.36 µM (inactive) in experiment [2]; 1.72 µM (inactive) in [3]; 3.13 µM (inactive) in [4]; 0.818 µM (active) in [5]; 12 µM (inactive) in experiment [6]. Further, the GI50 in [7] was 0.927 µM (active); in experiment [8], 8.02 µM (inactive); in [9], 18.5 µM (inactive); in experiment [10] it was 1.59 µM (inactive); in experiment [11], 0.69 µM (active); in [12], > 33.9 µM (inactive). Also, the GI50 in experiment [13] is 0.675 µM (active); in experiment [14], 5.33 µM (inactive); in experiment [15] it was 3.2 µM (inactive); in experiment [16] it was 0.745 µM (active); in experiment [17], 1.49 µM (inactive); in experiment [18], 20 µM (inactive). In addition, the GI50 in [19] is 1.58 µM (inactive).

Turning to `OCCCN=C1CCCCC1`, the GI50 in [1] was > 100 µM (inactive); in experiment [2] it was > 100 µM (inactive); in experiment [3] it was 56.8 µM (inactive); in experiment [4] it was 69.8 µM (inactive); in experiment [5] it was 77.4 µM (inactive); in [6] it was > 100 µM (inactive). The GI50 in experiment [7], in [8], in [9], in experiment [10], in [11] and in experiment [12] was > 100 µM (inactive) in each case. Moreover, the GI50 in experiment [13], in experiment [14], in experiment [15], in [16], in experiment [17] and in experiment [18] was > 100 µM (inactive) throughout. The GI50 in experiment [19] is > 100 µM (inactive).

In the case of `O=c1[nH]c2c(c(=O)[nH]1)SSC2`, the GI50 in [1] was 3.03 µM (inactive); in [2], 3.9 µM (inactive); in experiment [3] it was 6.44 µM (inactive); in experiment [4], 24.2 µM (inactive); in experiment [5], 17.3 µM (inactive); in experiment [6] it was 10.6 µM (inactive). The GI50 in experiment [7] is 3.14 µM (inactive); in [8] it was 11.2 µM (inactive); in experiment [9], 19.4 µM (inactive); in experiment [10], 25.7 µM (inactive); in [11], 19 µM (inactive); in experiment [12], 2.51 µM (inactive). The GI50 in experiment [13] is 13.8 µM (inactive); in experiment [14] it was 2.75 µM (inactive); in experiment [15], 25.9 µM (inactive); in [16], 1.99 µM (inactive); in experiment [17], 0.838 µM (active); in experiment [18] it was 16.6 µM (inactive). Also, in experiment [19], the GI50 is 21.4 µM (inactive).

Regarding `N#CC(C#N)=CNC(N)=S`, the GI50 in [1], in experiment [2], in experiment [3], in [4], in experiment [5] and in [6] was > 100 µM (inactive) throughout. In addition, the GI50 in [7] is > 100 µM (inactive); in experiment [8], > 100 µM (inactive); in [9], > 100 µM (inactive); in experiment [10] it was > 100 µM (inactive); in experiment [11], 1.5 µM (inactive); in [12], > 100 µM (inactive). Moreover, the GI50 in experiment [13], in [14], in [15], in [16], in experiment [17] and in [18] was > 100 µM (inactive) in each case. In addition, the GI50 in experiment [19] is > 100 µM (inactive).

On to `CN(C)C/C=C(/c1ccc(Br)cc1)c1cccnc1`, for which the GI50 in experiment [1] was 19.6 µM (inactive); in experiment [2] it was 20.2 µM (inactive); in [3] it was 19.8 µM (inactive); in [4], 48 µM (inactive); in experiment [5], 56.4 µM (inactive); in experiment [6], 45 µM (inactive). For the same compound, the GI50 in experiment [7] was 71 µM (inactive); in experiment [8] it was 58.7 µM (inactive); in experiment [9] it was > 100 µM (inactive); in experiment [10], 20.3 µM (inactive); in experiment [11], > 100 µM (inactive); in [12], 64.6 µM (inactive). Also, the GI50 was 19.7 µM (inactive) in experiment [13]; > 100 µM (inactive) in experiment [14]; 81.8 µM (inactive) in experiment [15]; 0.0165 µM (active) in experiment [16]; 34.7 µM (inactive) in experiment [17]; > 100 µM (inactive) in experiment [18]. For the same compound, in [19], the GI50 was 16.6 µM (inactive).

As for `Cc1cc(C)c([S@@](=O)O[C@@H]2[C@H]3OC(C)(C)O[C@H]3O[C@@H]2[C@H]2COC(C)(C)O2)c(C)c1`, the GI50 in experiment [1] was 22 µM (inactive); in experiment [2], 25.5 µM (inactive); in experiment [3] it was 31.2 µM (inactive); in [4], 37.2 µM (inactive); in experiment [5] it was 8.65 µM (inactive); in experiment [6], 21.5 µM (inactive). Further, the GI50 in [7] was 24.8 µM (inactive); in [8] it was 37.5 µM (inactive); in experiment [9] it was 24.6 µM (inactive); in experiment [10], 11.8 µM (inactive); in experiment [11], 19.7 µM (inactive); in experiment [12] it was 16.6 µM (inactive). Further, the GI50 was 31.2 µM (inactive) in experiment [13]; 21 µM (inactive) in experiment [14]; 29.4 µM (inactive) in experiment [15]; 4.18 µM (inactive) in [16]; 17.1 µM (inactive) in experiment [17]; 29.2 µM (inactive) in [18]. Further, the GI50 in [19] is 16.3 µM (inactive).

In the case of `O=C1CSC(c2cccc([N+](=O)[O-])c2)N1c1ccc(-c2ccc(-n3c(-c4ccccc4)nc4ccccc4c3=O)cc2)cc1` (stereo not given), the GI50 in experiment [1] is 28.8 µM (inactive); in experiment [2], 29.8 µM (inactive); in experiment [3], 29.2 µM (inactive); in experiment [4], 49.1 µM (inactive); in experiment [5] it was 25.6 µM (inactive); in [6], 63.7 µM (inactive). Also, the GI50 is 24.7 µM (inactive) in experiment [7]; 17.9 µM (inactive) in experiment [8]; 44.1 µM (inactive) in [9]; 64.7 µM (inactive) in experiment [10]; 23.3 µM (inactive) in [11]; > 100 µM (inactive) in experiment [12]. Further, the GI50 in experiment [13] is 29.1 µM (inactive); in experiment [14] it was 48.6 µM (inactive); in experiment [15] it was 34.6 µM (inactive); in experiment [16], 19.5 µM (inactive); in experiment [17] it was 30 µM (inactive); in experiment [18] it was > 100 µM (inactive). In addition, in [19], the GI50 was 21.1 µM (inactive).

On to `Cc1ccc(N(C=O)c2c([N+](=O)[O-])cc([N+](=O)[O-])c3c2=[N+]([O-])CN=3)cc1`, for which the GI50 is 11.9 µM (inactive) in experiment [1]; 20.3 µM (inactive) in experiment [2]; 17.7 µM (inactive) in experiment [3]; 29 µM (inactive) in [4]; 19.2 µM (inactive) in experiment [5]; 60 µM (inactive) in experiment [6]. Moreover, the GI50 was 24.8 µM (inactive) in [7]; 17.5 µM (inactive) in experiment [8]; > 100 µM (inactive) in experiment [9]; 39.6 µM (inactive) in experiment [10]; 24.2 µM (inactive) in experiment [11]; 16.2 µM (inactive) in experiment [12]. The GI50 in [13] was 13.5 µM (inactive); in experiment [14], 31.6 µM (inactive); in experiment [15], > 100 µM (inactive); in experiment [16], 23 µM (inactive); in [17], 20.7 µM (inactive); in [18], > 100 µM (inactive). Moreover, in experiment [19], the GI50 was 28.5 µM (inactive).

Regarding `Cc1ccc(-c2nc(-c3nccc4ccccc34)oc2-c2ccccc2)cc1`, the GI50 is 46.6 µM (inactive) in [1]; 96.4 µM (inactive) in experiment [2]; 51.9 µM (inactive) in experiment [3]; 75 µM (inactive) in experiment [4]; 43 µM (inactive) in [5]; > 100 µM (inactive) in [6]. For the same compound, the GI50 is 20.2 µM (inactive) in experiment [7]; 68.2 µM (inactive) in [8]; > 100 µM (inactive) in experiment [9]; 30.5 µM (inactive) in experiment [10]; 56.1 µM (inactive) in [11]; 30.3 µM (inactive) in [12]. Further, the GI50 is 28.1 µM (inactive) in [13]; 24.8 µM (inactive) in experiment [14]; 40.6 µM (inactive) in experiment [15]; > 100 µM (inactive) in experiment [16]; 38.4 µM (inactive) in experiment [17]; > 100 µM (inactive) in experiment [18]. Besides, the GI50 in experiment [19] was 42.9 µM (inactive).

As to `CC1C(NNc2ccccc2)Oc2cc3c(cc2C1c1ccccc1O)OCO3` (stereo not given), the GI50 in [1] was 1.44 µM (inactive); in [2], 3.47 µM (inactive); in experiment [3], 10.9 µM (inactive); in experiment [4] it was 14.3 µM (inactive); in [5] it was 0.575 µM (active); in [6] it was 3.1 µM (inactive). For the same compound, the GI50 was 4.69 µM (inactive) in [7]; 2.77 µM (inactive) in experiment [8]; 12.8 µM (inactive) in [9]; 15.7 µM (inactive) in [10]; 11.8 µM (inactive) in experiment [11]; 13.5 µM (inactive) in experiment [12]. Further, the GI50 in experiment [13] was 11.6 µM (inactive); in experiment [14], 5.79 µM (inactive); in experiment [15], 2.93 µM (inactive); in experiment [16], 4.01 µM (inactive); in [17], 4.07 µM (inactive); in [18] it was 4.61 µM (inactive). Further, the GI50 in experiment [19] is 11.3 µM (inactive).
